From ChEMBL document CHEMBL6078642, “Design, Synthesis, and Activity Evaluation of BRD4 PROTAC Based on Alkenyl Oxindole-DCAF11 Pair” (J Med Chem, 2024) come the findings set out here.

SMILES strings stand for the structures. Calls of active or inactive are those of the source. No cut-off for these calls is given here.

In test [1] the test system is MDA-MB-231. The experiment in a line: Induction of BRD4 degradation in human MDA-MB-231 cells at 10 uM incubated for 12 hrs by immunoblot analysis. It is filed as cell-based.
For test [2], the system named is MDA-MB-231. The experiment in a line: Antiproliferative activity against human MDA-MB-231 cells assessed as reduction in cell viability incubated for 2 days by CCK8 assay. In kind it is functional, cell-based. As to conditions: MDA-MB-231, 48 h. On the technique in general: Formazan colour is commonly taken as a measure of viable cells.
Test [3] concerns MDA-MB-468. The experiment in a line: Antiproliferative activity against human MDA-MB-468 cells assessed as reduction in cell viability incubated for 2 days by CCK8 assay. In kind it is functional, cell-based. To be noted: MDA-MB-468, 48 h.
Test [4] deals with MDA-MB-231. The experiment in a line: Antiproliferative activity against human MDA-MB-231 cells assessed as reduction in cell viability incubated for 2 days in presence of tert-butyl 2-(4-methyl-2-((2-oxo-6-(trifluoromethyl)indolin-3-ylidene)methyl)phenoxy)acetate by CCK8 assay. It is filed as functional, cell-based. To be noted: MDA-MB-231, 48 h.
Test [5] has as its system MDA-MB-468. The experiment in a line: Antiproliferative activity against human MDA-MB-468 cells assessed as reduction in cell viability incubated for 2 days in presence of tert-butyl 2-(4-methyl-2-((2-oxo-6-(trifluoromethyl)indolin-3-ylidene)methyl)phenoxy)acetate by CCK8 assay. In kind it is functional, cell-based. To be noted: MDA-MB-468, 48 h.
Test [6] concerns MDA-MB-231. The experiment in a line: Induction of apoptosis in human MDA-MB-231 cells assessed as increase in cleaved PARP level by immunoblot analysis. It is filed as functional, cell-based.
Test [7] relates to MDA-MB-231. The experiment in a line: Induction of apoptosis in human MDA-MB-231 cells assessed as increase in cleaved caspase-7 level by immunoblot analysis. In kind it is functional, cell-based. In general terms: In western blotting, separated proteins are transferred to a membrane and probed.

`Cc1sc2c(c1C)C(c1ccc(Cl)cc1)=N[C@@H](CC(=O)O)c1nnc(C)n1-2`: the outcome in the test with MDA-MB-231 [1], in the test with MDA-MB-231 [6] and with MDA-MB-231 [7] was inactive. Moreover, the IC50 with MDA-MB-231 [2] was 5.13 µM; with MDA-MB-468 [3], 25.9 µM; in the test with MDA-MB-231 [4], 3.71 µM; in the test with MDA-MB-468 [5], 10 µM.

Usually IC50 stands for the concentration at which inhibition is half-maximal.
